Activity calls are given as the source filed them.
Legend:
[1] = target: T1, RNA-binding protein pos-1 (Caenorhabditis elegans, UniProt G5EF15); assay: inhibitors of POS-1/mex-3 RNA binding, dose response, biochemical, fluorescence polarization (AID 1964);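 also: purified POS-1 fused to maltose binding protein made in E. coli; potency of compounds blocking POS-1 binding to fluorescent RNA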
T1 sequence (G5EF15 whole entry): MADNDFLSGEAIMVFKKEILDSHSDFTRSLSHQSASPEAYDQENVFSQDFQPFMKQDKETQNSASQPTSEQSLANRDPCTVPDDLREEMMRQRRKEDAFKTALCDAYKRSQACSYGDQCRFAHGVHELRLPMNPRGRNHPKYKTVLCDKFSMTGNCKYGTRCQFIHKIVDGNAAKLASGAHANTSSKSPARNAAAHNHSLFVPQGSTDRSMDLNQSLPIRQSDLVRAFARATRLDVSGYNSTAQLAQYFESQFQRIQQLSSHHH

[2] = target: T2, Zinc finger protein mex-5 (Caenorhabditis elegans, UniProt Q9XUB2); assay: MEX-5/TCR-2 RNA interaction inhibitors, dose response, biochemical, C. elegans, fluorescence polarization (AID 1960)
T2 sequence (Q9XUB2 whole entry): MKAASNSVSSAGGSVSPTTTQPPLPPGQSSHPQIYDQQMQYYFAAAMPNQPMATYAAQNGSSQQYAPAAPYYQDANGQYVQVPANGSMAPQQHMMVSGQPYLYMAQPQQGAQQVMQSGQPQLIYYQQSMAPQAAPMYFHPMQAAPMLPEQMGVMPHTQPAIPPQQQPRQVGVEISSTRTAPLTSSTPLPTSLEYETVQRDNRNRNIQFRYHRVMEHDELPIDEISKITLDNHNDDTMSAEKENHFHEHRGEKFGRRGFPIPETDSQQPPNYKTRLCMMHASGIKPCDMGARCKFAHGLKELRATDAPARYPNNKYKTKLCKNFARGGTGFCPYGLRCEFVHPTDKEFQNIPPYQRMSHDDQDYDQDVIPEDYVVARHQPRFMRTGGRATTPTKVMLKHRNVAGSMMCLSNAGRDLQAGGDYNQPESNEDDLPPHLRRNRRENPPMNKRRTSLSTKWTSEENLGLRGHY

[3] = target: T3, Replicative DNA helicase DnaB (Mycobacterium tuberculosis, UniProt P9WMR3); assay: DnaB intein splicing inhibitors, dose response, biochemical, cell-free fluorescence (AID 449749); assay type: functional
T3 sequence (P9WMR3 whole entry): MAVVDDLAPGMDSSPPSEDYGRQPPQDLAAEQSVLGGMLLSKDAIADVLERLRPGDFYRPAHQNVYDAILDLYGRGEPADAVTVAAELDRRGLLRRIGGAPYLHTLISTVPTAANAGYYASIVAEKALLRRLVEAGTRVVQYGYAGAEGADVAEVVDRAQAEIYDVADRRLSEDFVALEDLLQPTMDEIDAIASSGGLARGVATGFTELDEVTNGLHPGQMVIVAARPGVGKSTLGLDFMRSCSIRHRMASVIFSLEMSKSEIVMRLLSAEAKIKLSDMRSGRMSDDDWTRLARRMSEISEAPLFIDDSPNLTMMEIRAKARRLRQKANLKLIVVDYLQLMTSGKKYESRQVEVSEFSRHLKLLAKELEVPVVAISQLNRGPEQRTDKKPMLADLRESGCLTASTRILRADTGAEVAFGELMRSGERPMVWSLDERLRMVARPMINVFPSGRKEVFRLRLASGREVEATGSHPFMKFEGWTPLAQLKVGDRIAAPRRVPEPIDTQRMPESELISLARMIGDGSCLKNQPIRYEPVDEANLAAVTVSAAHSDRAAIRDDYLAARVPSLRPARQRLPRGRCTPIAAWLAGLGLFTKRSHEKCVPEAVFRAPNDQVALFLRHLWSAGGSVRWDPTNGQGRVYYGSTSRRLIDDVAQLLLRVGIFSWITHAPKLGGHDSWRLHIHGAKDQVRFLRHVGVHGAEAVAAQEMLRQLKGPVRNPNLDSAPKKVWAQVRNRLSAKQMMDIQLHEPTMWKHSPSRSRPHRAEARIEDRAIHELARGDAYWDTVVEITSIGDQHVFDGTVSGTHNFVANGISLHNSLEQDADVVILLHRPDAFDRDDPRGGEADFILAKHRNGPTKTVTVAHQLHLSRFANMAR

Protein RecA = target: T4, Protein RecA (Mycobacterium tuberculosis, UniProt P9WHJ3); assay: Fluorescence Cell-Free Homogeneous Dose Retest to Identify Inhibitors of RecA-Intein Splicing Activity. [Related pubchem assays (depositor defined):AID2097, AID2223, AID489010, AID492950]; assay type: functional
T4 sequence (P9WHJ3 whole entry): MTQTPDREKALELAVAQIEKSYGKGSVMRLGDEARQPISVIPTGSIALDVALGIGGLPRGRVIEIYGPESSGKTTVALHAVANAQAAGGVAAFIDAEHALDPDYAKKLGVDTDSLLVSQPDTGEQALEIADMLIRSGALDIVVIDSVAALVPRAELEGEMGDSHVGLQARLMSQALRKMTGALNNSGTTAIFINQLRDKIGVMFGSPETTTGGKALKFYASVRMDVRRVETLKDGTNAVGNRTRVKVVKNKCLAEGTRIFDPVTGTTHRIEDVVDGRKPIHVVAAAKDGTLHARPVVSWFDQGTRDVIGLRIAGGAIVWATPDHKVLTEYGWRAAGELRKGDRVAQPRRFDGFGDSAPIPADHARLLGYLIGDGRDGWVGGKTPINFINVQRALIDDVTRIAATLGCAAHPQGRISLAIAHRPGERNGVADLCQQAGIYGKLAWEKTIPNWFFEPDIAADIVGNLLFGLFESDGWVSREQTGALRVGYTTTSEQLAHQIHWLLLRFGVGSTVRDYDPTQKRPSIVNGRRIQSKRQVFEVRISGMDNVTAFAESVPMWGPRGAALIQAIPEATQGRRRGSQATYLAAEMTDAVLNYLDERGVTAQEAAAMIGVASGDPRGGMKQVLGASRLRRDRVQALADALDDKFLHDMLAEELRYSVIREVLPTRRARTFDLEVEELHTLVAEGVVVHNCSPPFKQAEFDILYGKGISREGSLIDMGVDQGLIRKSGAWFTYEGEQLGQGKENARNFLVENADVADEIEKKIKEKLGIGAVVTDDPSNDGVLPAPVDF

[4] = target: T5, Rac GTPase-activating protein 1 (Homo sapiens, UniProt Q9H0H5); assay: MgcRacGAP GTPase-activating activity inhibitors, confirmation, biochemical, ADP Hunter fluorescence, primary and confirmatory (AID 624330); assay type: functional
T5 sequence (Q9H0H5 whole entry): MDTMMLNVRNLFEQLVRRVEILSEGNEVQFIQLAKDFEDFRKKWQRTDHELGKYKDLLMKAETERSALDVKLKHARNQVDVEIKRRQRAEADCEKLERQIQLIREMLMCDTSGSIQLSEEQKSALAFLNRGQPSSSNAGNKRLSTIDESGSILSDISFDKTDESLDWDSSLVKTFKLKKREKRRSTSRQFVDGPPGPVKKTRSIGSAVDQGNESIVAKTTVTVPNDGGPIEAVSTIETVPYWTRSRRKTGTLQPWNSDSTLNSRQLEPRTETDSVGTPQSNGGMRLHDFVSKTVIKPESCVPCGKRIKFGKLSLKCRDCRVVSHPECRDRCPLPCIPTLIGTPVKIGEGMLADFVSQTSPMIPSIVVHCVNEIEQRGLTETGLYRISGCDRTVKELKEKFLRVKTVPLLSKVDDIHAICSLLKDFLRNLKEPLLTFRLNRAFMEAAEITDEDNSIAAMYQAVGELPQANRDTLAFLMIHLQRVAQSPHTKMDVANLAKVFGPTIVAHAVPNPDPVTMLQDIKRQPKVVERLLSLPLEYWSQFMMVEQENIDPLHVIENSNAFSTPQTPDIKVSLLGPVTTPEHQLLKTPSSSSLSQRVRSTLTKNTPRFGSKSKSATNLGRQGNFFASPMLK

Cytochrome P450 1A2 = target: T6, Cytochrome P450 1A2 (Homo sapiens, UniProt P05177);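 also: PubChem cytochrome P450 panel assay, CYP1A2 panel member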
T6 sequence (P05177 whole entry): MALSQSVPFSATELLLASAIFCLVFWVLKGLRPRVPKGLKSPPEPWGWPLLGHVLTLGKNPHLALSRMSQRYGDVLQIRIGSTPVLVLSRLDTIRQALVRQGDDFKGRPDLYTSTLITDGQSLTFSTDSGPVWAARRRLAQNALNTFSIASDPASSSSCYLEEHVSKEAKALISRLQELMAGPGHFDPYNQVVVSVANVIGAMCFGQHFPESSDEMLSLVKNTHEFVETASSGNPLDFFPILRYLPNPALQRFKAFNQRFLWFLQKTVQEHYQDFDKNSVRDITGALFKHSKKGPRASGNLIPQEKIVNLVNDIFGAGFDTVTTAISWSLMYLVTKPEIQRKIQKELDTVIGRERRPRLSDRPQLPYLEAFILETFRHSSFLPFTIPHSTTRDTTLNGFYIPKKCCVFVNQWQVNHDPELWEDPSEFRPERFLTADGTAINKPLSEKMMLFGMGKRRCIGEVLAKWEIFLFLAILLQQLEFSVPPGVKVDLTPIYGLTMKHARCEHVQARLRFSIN

Cytochrome P450 2C9 = Cytochrome P450 2C9 (Homo sapiens, UniProt P11712)
Cytochrome P450 2C9, sequence (P11712 whole entry): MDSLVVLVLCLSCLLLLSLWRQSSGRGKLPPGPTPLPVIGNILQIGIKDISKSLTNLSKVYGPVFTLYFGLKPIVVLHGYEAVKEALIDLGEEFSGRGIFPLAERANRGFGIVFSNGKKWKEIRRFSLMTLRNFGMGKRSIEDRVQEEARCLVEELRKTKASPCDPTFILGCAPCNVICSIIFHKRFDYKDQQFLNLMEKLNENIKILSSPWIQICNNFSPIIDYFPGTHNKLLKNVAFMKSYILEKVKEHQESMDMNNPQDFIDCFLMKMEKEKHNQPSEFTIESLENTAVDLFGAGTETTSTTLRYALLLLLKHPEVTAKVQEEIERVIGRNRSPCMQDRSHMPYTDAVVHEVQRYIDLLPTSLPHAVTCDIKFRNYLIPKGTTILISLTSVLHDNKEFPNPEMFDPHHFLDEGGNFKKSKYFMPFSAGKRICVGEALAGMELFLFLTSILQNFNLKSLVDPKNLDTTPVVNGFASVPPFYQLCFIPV

Cytochrome P450 2D6 = Cytochrome P450 2D6 (Homo sapiens, UniProt P10635);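 also: CYP2D6 member of a cytochrome P450 panel assay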
Cytochrome P450 2D6, sequence (P10635 whole entry): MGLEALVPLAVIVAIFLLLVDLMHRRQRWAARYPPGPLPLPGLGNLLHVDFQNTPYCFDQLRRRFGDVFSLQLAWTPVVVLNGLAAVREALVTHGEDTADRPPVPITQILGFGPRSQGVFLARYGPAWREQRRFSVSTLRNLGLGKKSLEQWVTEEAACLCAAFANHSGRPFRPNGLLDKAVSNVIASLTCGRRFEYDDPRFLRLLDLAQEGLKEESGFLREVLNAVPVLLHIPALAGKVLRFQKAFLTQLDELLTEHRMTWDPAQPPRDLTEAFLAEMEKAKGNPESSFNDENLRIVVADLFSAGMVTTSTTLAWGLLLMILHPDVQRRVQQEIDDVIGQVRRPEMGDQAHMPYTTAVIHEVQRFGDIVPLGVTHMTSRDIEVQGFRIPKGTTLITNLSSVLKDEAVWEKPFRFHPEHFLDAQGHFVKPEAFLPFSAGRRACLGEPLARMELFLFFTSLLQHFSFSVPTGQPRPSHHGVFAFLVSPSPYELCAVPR

Cytochrome P450 3A4 = Cytochrome P450 3A4 (Homo sapiens, UniProt P08684);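 also: CYP3A4 tested as one member of a cytochrome P450 panel screen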
Cytochrome P450 3A4, sequence (P08684 whole entry): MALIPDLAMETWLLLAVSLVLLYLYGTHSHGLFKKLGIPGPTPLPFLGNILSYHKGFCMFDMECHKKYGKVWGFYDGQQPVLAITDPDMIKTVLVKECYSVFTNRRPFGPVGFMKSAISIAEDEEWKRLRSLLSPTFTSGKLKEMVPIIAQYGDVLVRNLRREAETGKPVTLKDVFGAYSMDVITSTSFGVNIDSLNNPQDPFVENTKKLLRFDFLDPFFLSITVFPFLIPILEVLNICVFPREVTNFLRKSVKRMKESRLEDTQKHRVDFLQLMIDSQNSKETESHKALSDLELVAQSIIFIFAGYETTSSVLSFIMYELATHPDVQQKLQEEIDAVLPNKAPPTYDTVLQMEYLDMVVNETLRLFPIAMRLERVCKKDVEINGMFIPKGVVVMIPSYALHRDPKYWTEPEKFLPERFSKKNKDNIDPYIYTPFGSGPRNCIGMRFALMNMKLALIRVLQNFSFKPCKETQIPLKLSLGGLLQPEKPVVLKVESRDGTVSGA

[5] = Luminescence Cell-Based Dose Retest to Confirm Inhibitors of Cancer Stem Cells. [Related pubchem assays (depositor defined):AID2717, AID2721]; assay type: functional; details: Homo sapiens
H4 = assay: Luminescence Cell-Based Dose Response HTS to Identify Activators of 5'UTR Stem-Loop Driven Prion Protein mRNA Translation in H4 Neuroglioblastoma Cells. [Related pubchem assays: 1829 (Project Summary), 1814 (Primary HTS)]; assay type: functional; details: Homo sapiens

CC(C)(C)N=C(S)NCCc1ccccc1
EC50 [1]: > 300 µM (inconclusive) | EC50 [2]: > 300 µM (not active)

CC1=NN(Cc2ccccc2)C(=O)C1
AC50 [3]: 5.61 µM (active) | EC50 (Protein RecA): 1.88 µM (active)

N#CC(C#N)=Cc1ccc(NC(=O)c2ccc(Br)cc2)cc1
EC50 [1]: > 300 µM (not active) | EC50 [2]: > 300 µM (not active)

N#C/C(=C/c1ccc2c(c1)OCO2)C(=O)Nc1ccc(O)cc1
AC50 [3]: 19 µM (active) | EC50 (Protein RecA): 3.64 µM (active) | IC50 [4]: 55.4 µM (active)

O=C(O)c1cccc(SSc2cccc(C(=O)O)c2)c1
AC50 (Cytochrome P450 1A2): 5.01 µM (inconclusive) | AC50 (Cytochrome P450 2C9): 2 µM (inconclusive)

Cc1ccc(-c2ccc(CCC(=O)O)n2-c2cccc(C(=O)O)c2)cc1
EC50 [1]: > 300 µM (not active) | EC50 [2]: > 300 µM (not active)

CCc1n[nH]c2c1C(c1cccnc1)C(C#N)=C(N)O2 (configuration not stated)
AC50 [3]: 24.4 µM (inconclusive) | EC50 (Protein RecA): 11.5 µM (active)

CC1(C)CC(=O)C2=C(C1)OC(N)=C(C#N)[C@@]21C(=O)N(CC(N)=O)c2ccccc21
EC50 [1]: > 300 µM (not active) | EC50 [2]: > 300 µM (not active)

COc1cc(NC(=O)c2cc(Cl)ccc2Cl)ccc1-c1cc2ccccc2oc1=O
AC50 (Cytochrome P450 2D6): 25.1 µM (inconclusive) | AC50 (Cytochrome P450 1A2): 12.6 µM (inconclusive) | AC50 (Cytochrome P450 3A4): 1 µM (inconclusive)

N#Cc1cccc(NC(=O)N2CCCC3(CCN(C(=O)c4cnccn4)CC3)C2)c1
AC50 (Cytochrome P450 1A2): 20 µM (inconclusive) | AC50 (Cytochrome P450 3A4): 15.8 µM (inconclusive)

Cc1ccc(Nc2cc(C)nc3c(C)ccc([N+](=O)[O-])c23)cc1
AC50 [3]: > 120 µM (inactive) | EC50 (Protein RecA): 2.34 µM (active)

Cc1cc(C)cc(N2C(=O)/C(=C/Nc3ccc(N4CCOCC4)cc3)C(=O)NC2=S)c1
EC50 [1]: 7.92 µM (active) | EC50 [2]: 5.42 µM (inconclusive)

CCCCCc1cc(=O)oc2c(C(CCN3CCCC(C)C3)c3ccc4c(c3)OCO4)c(OC)cc(OC)c12 (configuration not stated)
AC50 [5]: 6.14 µM (active) | AC50 [3]: 5.31 µM (active) | EC50 (Protein RecA): 11.6 µM (active)

CS(=O)(=O)c1ccc(C(=O)OCc2nnc(-c3ccc(Cl)cc3)o2)cc1[N+](=O)[O-]
AC50 [3]: 2.2 µM (active) | EC50 (Protein RecA): 1.42 µM (active)

Cc1ccc(C(=O)Nc2nc3ccccc3n2CCN2CCCC2)cc1
EC50 (H4): 10.9 µM (active)

CC1(OC(=O)C2CCCC2)C(=O)C=C2C=C(c3ccsc3)OC=C2C1=O (configuration not stated)
EC50 [1]: 47.8 µM (active) | EC50 [2]: 37.1 µM (active)

O=C(CNC(=O)c1ccco1)OC(C(=O)c1ccccc1)c1ccccc1 (configuration not stated)
AC50 (Cytochrome P450 1A2): 15.8 µM (inconclusive) | AC50 (Cytochrome P450 3A4): 28.2 µM (inconclusive)

O=C1OCc2cc(-n3cccc3)ccc21
EC50 [1]: > 300 µM (not active) | EC50 [2]: > 300 µM (not active)

O=C(C1CCN(S(=O)(=O)c2cccc3nsnc23)CC1)N1CCn2c1nc1ccccc12
AC50 (Cytochrome P450 2D6): 17.8 µM (inconclusive) | AC50 (Cytochrome P450 1A2): 20 µM (inconclusive) | AC50 (Cytochrome P450 2C9): 25.1 µM (inconclusive)

CCOC(=O)C1Nc2ccc(OC(F)(F)F)cc2C2C=CCC12 (configuration not stated)
EC50 [1]: > 300 µM (not active) | EC50 [2]: > 300 µM (not active)

COc1ccc(C(=O)/C=C/c2ccc(N3CCCCC3)c([N+](=O)[O-])c2)c(OC)c1
EC50 [1]: > 300 µM (not active) | EC50 [2]: > 300 µM (not active) | AC50 [5]: 4.31 µM (active)

Cc1sc2nc(SCc3nc(-c4cccs4)no3)n(-c3ccccc3)c(=O)c2c1C
AC50 (Cytochrome P450 1A2): 14.1 µM (inconclusive) | AC50 (Cytochrome P450 2C9): 0.501 µM (inconclusive)

Cc1cccc(NC(=O)/C(C#N)=C\c2cc(C)n(-c3ccc(C(=O)O)cc3)c2C)c1
EC50 [1]: 84 µM (active) | EC50 [2]: > 300 µM (not active)

CCCc1n[nH]c2c1C(c1ccc(OC)c(Cn3nnc4ccccc43)c1)C(C#N)=C(N)O2 (configuration not stated)
AC50 [3]: 19.7 µM (active) | EC50 (Protein RecA): 0.283 µM (active)

From ChEMBL document CHEMBL1201862, “PubChem BioAssay data set” (2004)
